Measured values: patent US20250281499A1, “FUSED AMINO PYRIMIDINE COMPOUNDS FOR TREATMENT OF NEUROPATHIC AND NEURO-INFLAMMATORY PAIN” (Ovid Therapeutics Inc., priority 2024, published 2025)

Experiments:
[1] = system: hippocampal neurons; test: Whole cell patch-clamp with imposed Cl− load in hippocampal neurons; assay type: cell-based, Sprague Dawley; settings: 1 h incubation, 32 mM Cl− load; controls −47.4±2.3
Experimental: Neuronal Cultures. Hippocampal neurons were prepared from Sprague Dawley E18 embryos and plated at 450,000 per dish and maintained at 37° C. in a humidified 5% CO2 incubator for 10-25 days before experimentation (Lee et al., Nat. Neurosci. 14, 736-743 (2011)).
Neuronal Patch clamp assays. Neuronal cell culture recordings were performed in bath saline at 34° C. For gramicidin perforated-patch experiments, pipettes contained (in mM): 140 KCl and 10 HEPES, pH 7.4 KOH. For whole-cell experiments, pipettes contained (in mM): 115 K-meth-SO4, 30 KCl, 2 Mg-ATP, 4 Na-ATP, 0.4 Na-GTP, and 10 HEPES, pH 7.4 KOH. Bath saline contained the following (in mM): 140 NaCl, 2.5 KCl, 2.5 CaCl2, 2.5 MgCl2, 10 HEPES, and 11 glucose, pH 7.4 NaOH (Kontou et al., 2021, supra). All compound solutions were applied to cells using a three-barreled 700 μm pipe positioned just above the cell (Warner Instruments). […] All voltages from whole-cell experiments were corrected offline using a calculated liquid junction potential value (13.6 mV) in Clampex (Molecular Devices). For gramicidin perforated-patch experiments, intracellular Cl^− values were back-calculated using measured EGABA values and the Nernst equation: […]
5 min after break-in, an initial EGABA value was determined and the effects of a subsequent 5 min incubation with VU0463271 was assessed.

[2] = biological target: T1, KCC2-S940A (Homo sapiens, UniProt Q9H2X9, S963A); test: Tl+ flux assay, KCC2-S940A construct in HEK-293 cells; assay type: cell-based
T1 construct: expressed in transfected cells; host or cells: HEK-293
T1 sequence (Q9H2X9 1-1116 isoform Q9H2X9-2 S940A): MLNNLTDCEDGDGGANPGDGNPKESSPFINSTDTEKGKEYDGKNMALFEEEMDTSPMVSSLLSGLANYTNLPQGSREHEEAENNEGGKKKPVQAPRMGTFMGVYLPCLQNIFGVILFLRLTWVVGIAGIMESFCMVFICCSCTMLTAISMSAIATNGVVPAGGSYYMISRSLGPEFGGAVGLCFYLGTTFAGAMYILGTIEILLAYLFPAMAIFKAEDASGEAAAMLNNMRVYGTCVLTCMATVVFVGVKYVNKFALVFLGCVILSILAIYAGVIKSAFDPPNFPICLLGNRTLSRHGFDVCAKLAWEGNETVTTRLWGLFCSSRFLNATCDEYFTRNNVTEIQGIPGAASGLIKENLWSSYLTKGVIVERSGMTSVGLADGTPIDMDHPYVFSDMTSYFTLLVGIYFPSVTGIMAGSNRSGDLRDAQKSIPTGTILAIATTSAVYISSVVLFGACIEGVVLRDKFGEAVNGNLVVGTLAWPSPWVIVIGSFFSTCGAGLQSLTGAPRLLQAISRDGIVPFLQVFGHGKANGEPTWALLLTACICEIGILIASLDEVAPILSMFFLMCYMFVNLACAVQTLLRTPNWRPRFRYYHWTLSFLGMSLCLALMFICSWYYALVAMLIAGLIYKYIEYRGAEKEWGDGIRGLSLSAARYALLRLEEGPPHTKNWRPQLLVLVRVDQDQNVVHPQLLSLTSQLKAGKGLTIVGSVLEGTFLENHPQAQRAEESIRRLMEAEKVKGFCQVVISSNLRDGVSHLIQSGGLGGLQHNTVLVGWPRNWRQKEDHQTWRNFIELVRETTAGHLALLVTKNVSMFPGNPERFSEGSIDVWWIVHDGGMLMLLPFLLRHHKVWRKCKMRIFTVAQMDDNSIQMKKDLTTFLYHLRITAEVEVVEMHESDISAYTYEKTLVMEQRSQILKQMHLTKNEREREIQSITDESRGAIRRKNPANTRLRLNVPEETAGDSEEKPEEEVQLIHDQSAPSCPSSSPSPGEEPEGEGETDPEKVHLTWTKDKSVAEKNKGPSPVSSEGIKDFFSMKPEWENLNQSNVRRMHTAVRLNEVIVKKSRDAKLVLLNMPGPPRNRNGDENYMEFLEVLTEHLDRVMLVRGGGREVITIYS
Experimental: FLIPR TI Flux assay. HEK-293 cells were washed with HBSS, and then incubated with loading buffer containing TI sensitive fluorescent dye (https://www.moleculardevices.com), 20 μM bumetanide 20 μM ouabain and 2.5 mM probenecid for 1 h at room temperature (RT) under control conditions or with drugs in the dark using a FlexStation 3 microplate reader (Molecular Devices) and imaged […] for 30 min. Stimulus buffer was added containing 5 mM K^+/0.5 mM Tl^+ and cells were imaged every 1.5 over a 190 second time course The initial rate Tl^+ uptake (Relative Fluorescence Units (RFU) per second) was determined following addition of the stimulus buffer as outlined previously (Conway et al., 2017, supra) (Lee et al., 2022, supra).
Several studies have shown that the activity and plasma membrane accumulation of KCC2 is potentiated via phosphorylation of S940, a process mediated by the activity of protein kinase C and protein phosphatase 1 (Lee et al, 2011, supra; Lee et al., J Biol Chem 282, 29777-29784 (2007); Moore et al., Proc. Natl. Acad. Sci. U.S.A 115, 10166-10171 (2018); Moore et al., Trends Neurosci. 40, 555-571 (2017); Silayeva et al., Proc. Natl. Acad. Sci. U.S.A. 112, 3523-3528 (2015)). […] Compared to KCC2, effects on KCC3, KCC4, and NKCC1 were only seen at concentrations more than 35-fold that of KCC2 (>100 μM) (FIG. 1G).

[3] = system: panel of 144 protein kinases; test: Protein kinase panel (SelectScreen; Thermofisher); assay type: biochemical; settings: 144 protein kinases incl. PKC isoforms, OSR1, SPAK, WNK
Experimental: Aliquots of HEK-293 cells expressing, KCC2 were exposed to 30 μM SSA, heated from 37-55° C. The remaining level of soluble native KCC2 at each temperature was measured by immunoblotting and normalized to the level seen at 37° C. which was given a value of 1. […] This panel included protein kinase C isoforms, OSR1, SPAK (STK39) and with-no-lysine kinases (WNK), all of which phosphorylate KCC2 on multiple residues to indirectly modify its activity (Kahle et al., 2013, supra; Smalley et al., 2020, supra).

With `C[C@@H]1CN(c2nc3c(c(Nc4ccc(C5CCCCC5)cc4)n2)COC3)CCO1` [Compound A, (R)—N-(4-cyclohexylphenyl)-2-(2-methylmorpholino)-5,7-dihydrofuro[3,4-d]pyrimidin-4-amine] the “basal EGABA” value [1] was −59.3±2.1 mV, the “activity of KCC2-S940A construct” value [2] was “increased the activity” and the “activity of kinase panel” value [3] was “did not modify the activity”.
